| melting point [°C] | SMILES |
| --- | --- |
| 165 to 167 | O=C1N(Cc2ccc(C(F)(F)F)o2)c2cccc(Br)c2C12COc1cc3c(cc12)CCO3 (centres undefined) |
| 203 to 205 | Cc1nc2c(N)nc3cc(-c4ccccc4)ccc3c2n1CCCS(C)(=O)=O |
| 158 | CN(C)c1cncc(C(=NCCc2ccccc2Cl)NC#N)c1 |
| 155 | COC/C(=N/O)c1ccc(Sc2cc(F)cc(C3(OC)CCOCC3)c2)cc1 |
| 93 to 95 | COC(=O)C(=Cc1ccc(OC)c(OC)c1)C(C)=O |
| 116 | CCCCCCCCCCCCCCN(C(=O)CCCCCCCCCCC)C1(N)OC(CO)C(O)C(O)C1C(=O)C(N)C(=O)CNC (centres undefined) |
| 178 to 180 | Oc1c(Br)c(Br)c(F)c(Br)c1Br |
| 140 | CCOC(=O)C1=C(C)NC(N)=C(C(=O)OCC)C1C (centres undefined) |
| 142 to 144 | COC(=O)c1cc(-c2ncnc(C)c2C#N)c(F)cc1Cl |
| 137 to 142 | CSC1C(=O)Nc2ccc(Oc3ccc(F)c(C(F)(F)F)c3Cl)cc21 (centres undefined) |
| 61 to 63 | CCCCCCCCCCOc1cc2oc3c(C(=O)OCC)cccc3c(=O)c2cc1CCC(=O)OCC |
| 111 to 112 | CN(C)CC1=C(Nc2ccccc2)CC(C)(C)CC1=O |
| 109 to 110 | CN(C)CCN1c2ccccc2C(=O)N(C)c2cccnc21 |
| 185 to 186 | Oc1nn(-c2ccccc2)cc1Cc1ccccc1 |
| 256 to 257 | Nc1nc(N)c2cc(Cc3ccc4ccccc4c3)ccc2n1 |
| 118 | Cc1nc(Cl)c(SC(F)F)n1-c1c(Cl)cc(C(F)(F)F)cc1Cl |
| 208 to 210 | CC(=O)Nc1ncc(Sc2nnnn2C)s1 |
| 168 to 170 | CC1(C)Oc2c(N)c(Cl)cc(Cl)c2C1=O |
| 78 to 80 | CCN1C(=O)CCCc2cc(Nc3ncc(Cl)c(Nc4ccccc4OC)n3)c(OC)cc21 |

| melting point [°C] | SMILES |
| --- | --- |
| 248 to 254 | CCOC(=O)c1ncn2c3cccc(Cl)c3c(=O)n(C)c12 |
| 105 to 107 | CCOC(=O)c1ccc(-c2ccc(-c3ccccc3)c(-c3ccc4c(c3)C(C)(C)CCC4(C)C)c2)nc1 |
| 165 to 166 | O=C1NC(=O)c2ccc(Br)cc2/C1=C/Nc1ccc(CN2CCCC2)cc1 |
| 250 to 255 | Cn1c(=O)n(C)c2cc3c(N4CCN(C(=O)Nc5ccc(Oc6ccccc6)cc5)CC4)ncnc3cc21 |
| 136 to 138 | O=C1Nc2ccc(F)cc2OC1CCO (centres undefined) |
| 82 to 84 | CC(C)N1C(=O)c2ccccc2C1CC(C)(C)O (centres undefined) |
| 112 to 114 | O=C(NCc1ccccc1)Oc1ccc2c(ccn2Cc2ccncc2)c1 |
| 190 to 193 | NS(=O)(=O)c1ccc(-c2cnn(C3=CC=CC(F)(F)C3F)c(=O)c2-c2ccc(F)cc2)cc1 (centres undefined) |
| 133 to 135 | O=C1CC(C(=O)O)(c2ccccc2)C1 |
| 70 | Cn1nc(CNC(=O)c2ccccc2)nc1NCCCOc1cccc(CN2CCCCC2)c1 |
| 68 to 70 | CCOC(=O)c1c(N)cc([N+](=O)[O-])cc1CC |
| 110 to 113 | COCCOc1ccc(CCCOC(=O)NS(=O)(=O)NCCc2ccccc2)c(Oc2ncc(C(F)(F)F)cc2Cl)c1 |
| 179 to 180 | O=C(NO)c1ccc(CNC(=O)c2[nH]c(-c3ccccc3)cc2-c2ccc([N+](=O)[O-])cc2)cc1 |
| 291 | CC(C)c1cccc(C(C)C)c1N1C(=O)c2cccc3c(C#N)ccc(c23)C1=O |
| 301 | Cn1ccc(-c2[nH]nc3c2C(=O)c2c(NC(=O)NN4CCOCC4)cccc2-3)c1 |
| 141 to 143 | FC(F)(F)c1ccc(C=Cc2nc[nH]n2)cc1 |
| 56 | COc1cc(N)c([N+](=O)[O-])cc1C(F)(F)F |
| 195 to 197 | CCCn1c(=O)n(CC(C)O)c(=O)c2[nH]c(C34CC5CC(CC3C5)C4)nc21 (centres undefined) |

| SMILES | melting point [°C] |
| --- | --- |
| CC(Cc1c[nH]c2ccccc12)NC1CCC(c2ccccc2)(N(C)C)CC1 (centres undefined) | 155 to 162 |
| Cc1ccc(N2C(=O)c3nccnc3C2OC(=O)N2CCNCC2)nc1 (centres undefined) | 182 |
